Reference: patent publication US11028078B2 (The Johns Hopkins University, priority 2011, dated 2021)
Read-outs that look alike come from different tables or passages of the source.

Assays:
CYP3A4 = molecular target: T1, CYP3A4 (Homo sapiens, UniProt P08684); experiment: CYP3A4 enzyme assay (Vivid CYP3A4 Green Screening Kit); assay type: in vitro ADME; details: for CYP3A4 Inhibition (compared to intracozanole at 1 μm): % enzyme inhibition at 1 μM drug / % enzyme inhibition at 1 μM itraconazole
T1 construct: purchased ThermoFisher P2857; host or cells: baculosomes
Experimental: And CYP3A4 inhibition was initially determined using a cell-free fluorescence-based assay at a final concentration of 1 μM (Table 7).
CYP3A4 enzyme assay. CYP3A4 enzyme activity was tested using Vivid™ CYP3A4 Green Screening Kit (ThermoFisher, #P2857) using the manufacturer's protocol. Briefly, CYP3A4 baculosomes and drugs were incubated 10 min at 37° C. Then Vivid® Substrates were added and the fluorescence (ex/em:485/520) were read every 1 min for 60 minute.

HUVEC = HUVEC proliferation assay ([3H]thymidine incorporation); assay type: cell-based, human; details: HUVEC; for IC50: Homo sapiens
How it was run: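 Pooled HUVEC at passage eight or lower, grown in EGM-2 medium; proliferation measured by [3H]thymidine incorporation as in an earlier published protocol.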

[1] = 3H thymidine incorporation, in μM, read-out: Proliferation IC50

T1 sequence (P08684 whole entry): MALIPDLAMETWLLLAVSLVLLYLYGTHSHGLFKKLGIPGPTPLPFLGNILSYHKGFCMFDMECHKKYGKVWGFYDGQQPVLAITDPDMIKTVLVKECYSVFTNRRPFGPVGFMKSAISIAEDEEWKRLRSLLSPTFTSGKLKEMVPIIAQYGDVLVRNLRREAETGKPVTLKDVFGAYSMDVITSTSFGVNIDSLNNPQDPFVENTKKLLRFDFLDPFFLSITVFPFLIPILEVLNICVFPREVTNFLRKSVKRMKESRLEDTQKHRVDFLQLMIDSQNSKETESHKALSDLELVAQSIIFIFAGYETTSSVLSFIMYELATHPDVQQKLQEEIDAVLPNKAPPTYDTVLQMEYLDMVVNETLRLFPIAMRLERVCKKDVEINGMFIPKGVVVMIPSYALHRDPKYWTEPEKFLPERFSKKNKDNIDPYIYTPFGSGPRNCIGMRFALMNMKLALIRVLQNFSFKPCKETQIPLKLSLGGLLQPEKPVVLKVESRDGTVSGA

SMILES: CCC(C)n1ncn(-c2ccc(N3CCN(c4ccc(OC[C@@H]5CO[C@@](Cn6cccn6)(c6ccc(Cl)cc6Cl)O5)cc4)CC3)cc2)c1=O (stereo partly drawn) [Compound 234, 4-(4-(4-(4-(((2S,4R)-2-((1H-pyrazol-1-yl)methyl)-2-(2,4-dichlorophenyl)-1,3-dioxolan-4-yl)methoxy)phenyl)piperazin-1-yl)phenyl)-1-sec-butyl-1H-1,2,4-triazol-5(4H)-one]
- CYP3A4 Inhibition (compared to intracozanole at 1 μm) (CYP3A4): No inhibition
- IC50 (HUVEC; [1]): 0.307 µM

SMILES: CCC(C)n1ncn(-c2ccc(N3CCN(c4ccc(OC[C@@H]5CO[C@@](CN(C)C)(c6ccc(Cl)cc6Cl)O5)cc4)CC3)cc2)c1=O (stereo partly drawn) [Compound 264, 1-(sec-butyl)-4-(4-(4-(4-(((2S,4R)-2-(2,4-dichlorophenyl)-2-((dimethylamino)methyl)-1,3-dioxolan-4-yl)methoxy)phenyl)piperazin-1-yl)phenyl)-1H-1,2,4-triazol-5(4H)-one]
- CYP3A4 Inhibition (compared to intracozanole at 1 μm) (CYP3A4): No inhibition
- IC50 (HUVEC; [1]): 1.4 µM

SMILES: CCC(C)n1ncn(-c2ccc(N3CCN(c4ccc(OC[C@@H]5CO[C@@](Cn6cc(C(F)(F)F)nc6C)(c6ccc(Cl)cc6Cl)O5)cc4)CC3)cc2)c1=O (stereo partly drawn) [Compound 239, 1-(sec-butyl)-4-(4-(4-(4-(((2S,4R)-2-(2,4-dichlorophenyl)-2-((2-methyl-4-(trifluoromethyl)-1H-imidazol-1-yl)methyl)-1,3-dioxolan-4-yl)methoxy)phenyl)piperazin-1-yl)phenyl)-1H-1,2,4-triazol-5(4H)-one]
- CYP3A4 inhibition in the initial screening (CYP3A4; 1 μM): eliminated
- CYP3A4 Inhibition (compared to intracozanole at 1 μm) (CYP3A4): No inhibition
- IC50 (HUVEC; [1]): 0.441 µM

SMILES: CCC(C)n1ncn(-c2ccc(N3CCN(c4ccc(OC[C@@H]5CO[C@@](Cn6ccnc6)(c6ccc(Cl)cc6Cl)O5)cc4)CC3)cc2)c1=O (stereo partly drawn) [Compound 233, 4-(4-(4-(4-(((2S,4R)-2-((1H-imidazol-1-yl)methyl)-2-(2,4-dichlorophenyl)-1,3-dioxolan-4-yl)methoxy)phenyl)piperazin-1-yl)phenyl)-1-sec-butyl-1H-1,2,4-triazol-5(4H)-one]
- CYP3A4 Inhibition (compared to intracozanole at 1 μm) (CYP3A4): 1.18
- IC50 (HUVEC; [1]): 0.085 µM

SMILES: CCC(C)n1ncn(-c2ccc(N3CCN(c4ccc(OC[C@@H]5CO[C@@](Cn6c(C)cnc6C)(c6ccc(Cl)cc6Cl)O5)cc4)CC3)cc2)c1=O (stereo partly drawn) [Compound 241, 1-(sec-butyl)-4-(4-(4-(4-(((2S,4R)-2-(2,4-dichlorophenyl)-2-((2,5-dimethyl-1H-imidazol-1-yl)methyl)-1,3-dioxolan-4-yl)methoxy)phenyl)piperazin-1-yl)phenyl)-1H-1,2,4-triazol-5(4H)-one]
- CYP3A4 Inhibition (compared to intracozanole at 1 μm) (CYP3A4): 0.27
- Proliferation (IC50/IC50 Itra) (HUVEC; Table 7, relative to itraconazole): 3.1
- IC50 (HUVEC; [1]): 0.492 µM

SMILES: CCC(C)n1ncn(-c2ccc(N3CCN(c4ccc(OC[C@@H]5CO[C@@](Cn6nnnc6C)(c6ccc(Cl)cc6Cl)O5)cc4)CC3)cc2)c1=O (stereo partly drawn) [Compound 252, 1-sec-butyl-4-(4-(4-(4-(((2S,4R)-2-(2,4-dichlorophenyl)-2-((5-methyl-1H-tetrazol-1-yl)methyl)-1,3-dioxolan-4-yl)methoxy)phenyl)piperazin-1-yl)phenyl)-1H-1,2,4-triazol-5(4H)-one]
- CYP3A4 Inhibition (compared to intracozanole at 1 μm) (CYP3A4): 0.08
- IC50 (HUVEC; [1]): 0.101 µM

SMILES: CCC(C)n1ncn(-c2ccc(N3CCN(c4ccc(OC[C@@H]5CO[C@@](Cn6ccnc6C)(c6ccc(Cl)cc6Cl)O5)cc4)CC3)cc2)c1=O (stereo partly drawn) [Compound 235, 1-sec-butyl-4-(4-(4-(4-(((2S,4R)-2-(2,4-dichlorophenyl)-2-((2-methyl-1H-imidazol-1-yl)methyl)-1,3-dioxolan-4-yl)methoxy)phenyl)piperazin-1-yl)phenyl)-1H-1,2,4-triazol-5(4H)-one]
- CYP3A4 Inhibition (compared to intracozanole at 1 μm) (CYP3A4): 0.85
- IC50 (HUVEC; [1]): 0.173 µM

SMILES: CCC(C)n1ncn(-c2ccc(N3CCN(c4ccc(OC[C@@H]5CO[C@@](CBr)(c6ccc(Cl)cc6Cl)O5)cc4)CC3)cc2)c1=O (stereo partly drawn) [Compound 257, 4-(4-(4-(4-(((2S,4R)-2-(bromomethyl)-2-(2,4-dichlorophenyl)-1,3-dioxolan-4-yl)methoxy)phenyl)piperazin-1-yl)phenyl)-1-sec-butyl-1H-1,2,4-triazol-5(4H)-one]
- CYP3A4 Inhibition (compared to intracozanole at 1 μm) (CYP3A4): 0.03
- IC50 (HUVEC; [1]): 0.512 µM

SMILES: CCC(C)n1ncn(-c2ccc(N3CCN(c4ccc(OC[C@@H]5CO[C@@](Cn6cnc(C)n6)(c6ccc(Cl)cc6Cl)O5)cc4)CC3)cc2)c1=O (stereo partly drawn) [Compound 250, 1-sec-butyl-4-(4-(4-(4-(((2S,4R)-2-(2,4-dichlorophenyl)-2-((3-methyl-1H-1,2,4-triazol-1-yl)methyl)-1,3-dioxolan-4-yl)methoxy)phenyl)piperazin-1-yl)phenyl)-1H-1,2,4-triazol-5(4H)-one]
- CYP3A4 Inhibition (compared to intracozanole at 1 μm) (CYP3A4): 0.36
- IC50 (HUVEC; read-out: IC50 for inhibition of HUVEC proliferation): 0.27 µM
- IC50 (HUVEC; [1]): 0.272 µM

SMILES: CCC(C)n1ncn(-c2ccc(N3CCN(c4ccc(OC[C@@H]5CO[C@@](Cn6cnc(C)c6)(c6ccc(Cl)cc6Cl)O5)cc4)CC3)cc2)c1=O (stereo partly drawn) [Compound 238, 1-sec-butyl-4-(4-(4-(4-(((2S,4R)-2-(2,4-dichlorophenyl)-2-((4-methyl-H-imidazol-1-yl)methyl)-1,3-dioxolan-4-yl)methoxy)phenyl)piperazin-1-yl)phenyl)-1H-1,2,4-triazol-5(4H)-one]
- CYP3A4 Inhibition (compared to intracozanole at 1 μm) (CYP3A4): 1.18
- IC50 (HUVEC; [1]): 0.102 µM

SMILES: CCC(C)n1ncn(-c2ccc(N3CCN(c4ccc(OC[C@@H]5COC(c6ccc(Cl)cc6Cl)O5)cc4)CC3)cc2)c1=O (stereo partly drawn) [Compound 262, 1-sec-butyl-4-(4-(4-(4-(((4R)-2-(2,4-dichlorophenyl)-1,3-dioxolan-4-yl)methoxy)phenyl)piperazin-1-yl)phenyl)-1H-1,2,4-triazol-5(4H)-one]
- CYP3A4 Inhibition (compared to intracozanole at 1 μm) (CYP3A4): No inhibition
- IC50 (HUVEC; [1]): 0.328 µM

SMILES: CCC(C)n1ncn(-c2ccc(N3CCN(c4ccc(OC[C@@H]5CO[C@@](CN6CCN(C)CC6)(c6ccc(Cl)cc6Cl)O5)cc4)CC3)cc2)c1=O (stereo partly drawn) [Compound 265, 1-(sec-butyl)-4-(4-(4-(4-(((2S,4R)-2-(2,4-dichlorophenyl)-2-((4-methylpiperazin-1-yl)methyl)-1,3-dioxolan-4-yl)methoxy)phenyl)piperazin-1-yl)phenyl)-1H-1,2,4-triazol-5(4H)-one]
- CYP3A4 Inhibition (compared to intracozanole at 1 μm) (CYP3A4): 0.21
- IC50 (HUVEC; [1]): 0.396 µM

SMILES: CCC(C)n1ncn(-c2ccc(N3CCN(c4ccc(OC[C@@H]5CO[C@@](Cn6cc(C)nc6C)(c6ccc(Cl)cc6Cl)O5)cc4)CC3)cc2)c1=O (stereo partly drawn) [Compound 240, 1-(sec-butyl)-4-(4-(4-(4-(((2S,4R)-2-(2,4-dichlorophenyl)-2-((2,4-dimethyl-1H-imidazol-1-yl)methyl)-1,3-dioxolan-4-yl)methoxy)phenyl)piperazin-1-yl)phenyl)-1H-1,2,4-triazol-5(4H)-one]
- CYP3A4 Inhibition (compared to intracozanole at 1 μm) (CYP3A4): 0.45
- IC50 (HUVEC; [1]): 0.492 µM

SMILES: CCC(C)n1ncn(-c2ccc(N3CCN(c4ccc(OC[C@@H]5CO[C@@](CC6CCCC6)(c6ccc(Cl)cc6Cl)O5)cc4)CC3)cc2)c1=O (stereo partly drawn) [Compound 261, 1-sec-butyl-4-(4-(4-(4-(((2R,4R)-2-(cyclopentylmethyl)-2-(2,4-dichlorophenyl)-1,3-dioxolan-4-yl)methoxy)phenyl)piperazin-1-yl)phenyl)-1H-1,2,4-triazol-5(4H)-one]
- CYP3A4 Inhibition (compared to intracozanole at 1 μm) (CYP3A4): No inhibition
- IC50 (HUVEC; [1]): 0.512 µM
